What was measured:
responder splenocytes = assay: Proliferative response to allo-antigen (MLR) and mitogen, thymidine incorporation; type: cell-based, mouse; conditions: prior exposure to 20 μg/ml for 24 hours, vs control
Description: A. Fludarabine attenuates the proliferative response of spleen cells to allogeneic stimulation (MLR) or mitogenic stimulation (con A). […] Strain combinations of DBA versus BL6 and BL6 versus DBA were used in the MLR experiments. CPM is expressed as percent of non-treated control.
4×10^6 cells/ml responder cells (either B10.BR, DBA/2, or Balb/c) were co-cultured with 2×10^6 irradiated (25 Gy) stimulator cells/ml (C57.BL6) in complete media with 10 U/ml IL-2 (Chiron Corporation, Emeryville, Calif.) and 10 ng/ml IL-7 (PeproTech Inc., Rocky Hill, N.J.) in 96 well plates. Proliferation was monitored by measuring DNA synthesis/thymidine incorporation. Cultures were pulsed with 1 uCi/well of tritiated thymidine (NEN Life Sciences, Boston, Mass.) on day 6, harvested onto filtermats using a Tomtec Harvester (Hamden, Conn.) on day 7, and read on MicroBeta TriLux counter (PerkinElmer, Inc., Gaithersburg, Md.).

[1] = tested on: lethally irradiated B10.BR (H2k) recipient mice; assay: MHC mis-matched C57.BL6 to B10.BR transplant model: survival, GvHD (weight), donor engraftment; type: in vivo, mouse; conditions: splenocytes treated with 20 μg/ml vs control or other doses (0, 3, 10, 40 μg/ml)
Description: Lethally irradiated (11 Gy) B10.BR (H2^k) recipient mice were transplanted with 1×10^6 BL6 (H2^b) TCD-BM cells (n=40, thin line). […] Survival and weight change data are derived from 2-6 individual experiments using 5 or 10 animals per group. Kaplan-Meier survival determinations are shown in A (ticks indicate time points at which individual experiments were terminated). Trend lines representing the mean weight change (percent body weight) for each group are shown in B. Trend lines were calculated using a moving average with a periodicity of 3.
1×10^6 TCD-BM cells and splenocytes from BL6 strains having different Thy1.1 or Thy1.2 isotypes were administered to lethally irradiated B10.BR mice. […] Donor splenocyte derived CD4+ (gray bars) and CD8+ (black bars) were quantified in the peripheral blood of recipient mice 2-4 months post-transplant.
B10.BR recipients were lethally irradiated and transplanted with 1×10^6 TCD-BM from CD45.1+ C57.BL6 donors. […] The fraction of blood T-cells derived from recipient, donor BM, and donor spleen were determined at day +27 post-transplant, using markers for T-cells (CD3), recipient-type cells (H2^k), donor-type cells (H2^b), and CD45.1/CD45.2 isoforms.
Recipient mice were irradiated 1 day prior to transplant using a ^137CS source at a rate of 1.24 Gy/min. […] The mice were monitored daily for survival; moribund animals were euthanized. […]

MCMV [2] = assay: Adoptive immunotherapy against MCMV lethality, 10x10^6 lymphocytes, B/6 to F1 BMT; type: in vivo, mouse; conditions: day +120 post-BMT, MCMV infected; for % survival, immune splenocytes / Survivors/Total, immune splenocytes: 10×10^6 MCMV-immune lymphocytes; for % survival, naive splenocytes / Survivors/Total, naive splenocytes: 10×10^6 naive lymphocytes
Procedure: Spleens were removed from either untreated PepBoy mice (naive donors), or those that had been inoculated with 10^5-10^6 PFU MCMV 2-4 months earlier (immune donors).
To generate irradiated splenocytes for adoptive immunotherapy, cells were harvested after 24 hour culture and exposed to a single fraction of radiation from a ^137Cs source for a total of 7.5 Gy. S-59 psoralen (Cerus Corporation, Concord, Calif.) was added to some splenocytes cultures at the end of the 24 hour culture period at a final concentration of 2 nM. The cells in a T75 tissue culture flask were then placed on a UVA (320-400 nm) illumination device with a nominal fluorescence of 7 mW (Cole Parmer, Vernon Hill, Ill.) and illuminated for 5 mins to achieve 3.0 J/cm^2 equivalent UVA dose. Control (untreated) splenocytes were harvested after 24 hour culture without other interventions. For all four groups, lymphocytes were washed at the end of the culture/treatment period and the appropriate dosage of viable cells was used for adoptive immunotherapy.
One day prior to transplant, recipient F1 mice were conditioned using a ^137Cs source at a dose rate of 1.24 Gy/min. Two doses of 5.5 Gy were administered, 3 hours apart, for a total lethal dose of 11 Gy. Irradiated mice were given free access to drinking water containing oral antibiotics (1.1 mg/ml neomycin sulfate and 1000 U/ml polymyxin sulfate; Sigma, St. Louis, Mo.) starting 3 days prior to irradiation and continuing through the end of the experimental period. 5×10^6 T-cell depleted (TCD) BM cells in a total volume of 0.2 ml HBSS/FBS were injected into the tail vein of F1 mice on the day following irradiation. In adoptive immunotherapy experiments, the appropriate number of donor splenocytes were mixed with TCD BM cells and injected simultaneously in 0.2 ml total volume. Two hours after BMT, mice were injected intraperitoneally with appropriate MCMV inocula diluted in DMEM/CS. Control (uninfected) mice received DMEM/CS alone. Mice were evaluated daily for morbidity and mortality. The development of clinical GvHD was prospectively monitored by weighing mice twice weekly, as well as observing for alopecia and/or ruffled fur, diarrhea, and decreased activity with a “hunched over” appearance. Moribund mice were euthanized based on Emory IACUC end-points and protocols.
Lymphocytes were prepared from the spleens of naïve or MCMV-immune B/6 donors and 10×10^6 or 30×10^6 were infused IV at the time of B/6→F1 allogeneic BMT. […] Some groups of mice were subsequently infected with 2×10^4 PFU MCMV at two hours after BMT, a viral inoculum expected to produce 90-100% lethality (FIG. 8B).
Table 2: Effect of adoptive immunotherapy on the survival of B/6→F1 BMT mice following MCMV infection. At the time of BMT, mice were infused with 10×10^6 splenic lymphocytes from B/6 mice that were either previously-infected with MCMV (“Immune splenocytes”) or uninfected (“Naive splenocytes”). […] Some mice received lymphocytes that were untreated. The table lists the number of surviving mice (at day +120 post-BMT) and the total number of mice in each group, as well as the percentage survival.

MCMV [3] = assay: Adoptive immunotherapy against MCMV lethality, 30x10^6 MCMV-immune lymphocytes, B/6 to F1 BMT; type: in vivo, mouse; conditions: 30×10^6 immune lymphocytes; 2×10^4 PFU MCMV; P<0.001
Description: Spleens were removed from either untreated PepBoy mice (naive donors), or those that had been inoculated with 10^5-10^6 PFU MCMV 2-4 months earlier (immune donors). Polyclonal splenocytes were harvested by perfusing spleens with sterile HBSS/FBS. […]

splenocytes = assay: Splenocyte viability in 24 hour culture
Procedure: Splenocytes were harvested by perfusing spleens with sterile HBSS/FBS, and washed before culture. Splenocytes (10×10^6 cells/ml) were incubated in complete media (RPMI supplemented with 10% heat-inactivated FBS, 50 μM 2-mercaptoethanol, 100 Units/ml penicillin, 100 ug/ml streptomycin, 292 μg/ml L-glutamine, 1 mM sodium pyruvate, and non-essential amino acids added according to the manufacturer's specifications (Biowhittaker, Walkersville, Md.)). […] Overall viability was assessed by counting ethidium bromide/acridine orange stained cells under fluorescence microscopy. Survival of T-cell populations was determined by flow cytometric analyses using fluorochrome conjugated antibodies against mouse CD3, CD4 and CD8. Propidium iodide stain was used to exclude dead cells from the analysis.
The data represent the mean ±SEM for 4 individual experiments.

alloreactive T-cells = assay: Limiting dilution assay of alloreactive cell frequency; conditions: 20 μg/ml, B10.BR responders stimulated with C57.BL6
Procedure: Limiting dilution assay of B10.BR responder cells stimulated with C57.BL6.
The frequency of alloreactive cells was measured using a limiting dilution assay . Briefly, 20,000 responder cells were three-fold serially diluted in 96-well plates with 12 replicate wells per dilution. 10,000 stimulator cells were added to each well in a combined total volume of 150 μl complete media. After 7 days in co-culture, the proliferation of responder cells was measured using tritiated thymidine incorporation. The number of responder cells was plotted versus the natural logarithm of the percentage of negative wells (i.e., wells with cpm readings lesser than media control). The reciprocal of the slope of the regression line yielded the frequency of alloreactive T-cells.

B/6 to F1 BMT mice = assay: Lethality (GvHD) of 30x10^6 transferred lymphocytes without MCMV infection; type: in vivo, mouse; conditions: 30×10^6 lymphocytes; n=20
Description: FIGS. 9A-C. Adoptive immunotherapy to prevent MCMV lethality. Conditioned F1 recipients were infused with 5×10^6 TCD BM cells from B/6 donors. Some groups also received simultaneous infusions of 30×10^6 unselected splenocytes from B/6 donors previously infected with MCMV (immune). […] Following transplantation, mice were either infected with 2×10^4 PFU MCMV (A), or vehicle (B). Data from two separate experiments (n=20 mice per group) were combined for display and analysis. […] Survival was not improved when mice were infused with cultured (untreated) splenocytes (P>0.05). […]
To generate irradiated splenocytes for adoptive immunotherapy, cells were harvested after 24 hour culture and exposed to a single fraction of radiation from a ^137Cs source for a total of 7.5 Gy. […] The cells in a T75 tissue culture flask were then placed on a UVA (320-400 nm) illumination device with a nominal fluorescence of 7 mW (Cole Parmer, Vernon Hill, Ill.) and illuminated for 5 mins to achieve 3.0 J/cm^2 equivalent UVA dose. […]
One day prior to transplant, recipient F1 mice were conditioned using a ^137Cs source at a dose rate of 1.24 Gy/min. […] Mice were evaluated daily for morbidity and mortality. The development of clinical GvHD was prospectively monitored by weighing mice twice weekly, as well as observing for alopecia and/or ruffled fur, diarrhea, and decreased activity with a “hunched over” appearance. […]

[4] = tested on: liver of B/6 to F1 BMT mice; assay: Histologic assessment of hepatic inflammation (GvHD) and MCMV inclusions; type: in vivo, mouse; conditions: day +14
Description: FIGS. 11A-H. S-59/UVA-treated lymphocytes decrease hepatic MCMV infection without producing GvHD. […] Some mice were infected with 5×10^4 PFU MCMV (B, D, F, G), while others were uninfected (A, C, E). At day +14, livers were harvested from surviving mice and prepared for histologic examination. […] Numerous typical cytomegalic inclusions can be appreciated in a higher power photomicrograph (G). […] In contrast, mice infused with S-59/UVA lymphocytes had normal-appearing hepatic architecture with minimal detectable inflammation whether they were infected (F) or not (E).
Mice were euthanized, and segments of liver were immersion-fixed in 10% formalin, embedded in paraffin, cut in 8 μm sections, and stained with hematoxylin and eosin. […] Typical eosinophilic intranuclear cytomegalic inclusion bodies were counted in 10 contiguous high-power fields (hpf) on each section as a marker of viral replication. […] The results were decoded, tabulated, and analyzed by another co-author (J.R.).
A sample of liver was also prepared for microscopic quantitation of MCMV-infected cells and hepatic inflammation. A trained anatomic pathologist (D.J.), blinded to sample identity, scored the sections for MCMV inclusions and hepatic portal inflammation. Representative photomicrographs are shown in FIGS. 11(A-G) and quantitative data analysis in FIG. 11H. […]

[5] = 20 μg/ml fludarabine, 24 hour culture, % compared to starting cell no., mean ± SEM, 4 experiments

Row | Molecule | Decrease of proliferative response to concanavalin A (responder splenocytes; 10 μg/ml con A) | Reduction of thymidine incorporation after stimulation with allogeneic antigen (MLR) (responder splenocytes; 7-day MLR) | 40 day survival rate, pilot allogeneic transplant experiments [1] | % survival, immune splenocytes (MCMV [2]) | Survivors/Total, immune splenocytes (MCMV [2]) | % survival, naive splenocytes (MCMV [2]) | Survivors/Total, naive splenocytes (MCMV [2]) | Survival compared to mice that did not receive adoptive immunotherapy (MCMV [3]) | Splenocyte viability, CD4+ T-cells (splenocytes; [5]) | Splenocyte viability, CD8+ T-cells (splenocytes; [5]) | Splenocyte viability, all leukocytes (splenocytes; [5]) | Splenocyte viability, non T-cells (splenocytes; [5]) | Splenocyte viability, all leukocytes (splenocytes; 20 μg/ml fludarabine, 24 hour culture, % compared to starting cell no., mean ± SEM, 4 experiments, listed as fludarabine) | T-cell viability after fludarabine culture (splenocytes; 20 μg/ml, 24 hr) | Viability of predominantly CD8+ cultured CTL's (splenocytes; activated, allo-stimulated CTL's, in contrast to naive spleen cells) | Decrease in the frequency of allo-reactive T-cells (alloreactive T-cells) | Frequency of alloreactive cells in fludarabine treated culture (alloreactive T-cells; untreated culture 1/205) | Mice that died without MCMV infection (B/6 to F1 BMT mice) | Portal inflammation score (scale 1-5) ([4]; MCMV infected) | Portal inflammation score (scale 1-5) ([4]; not MCMV infected)
1 | 9-beta-D-arabinosyl-2-fluoroadenine [Fludarabine] | 37% | 62% | most favorable | 71% | 24/34 | 23% | 8/35 | significantly improved survival | 69.0 ± 9.9% | 62.1 ± 12.9% | 41.6 ± 7.8% | 33.6 ± 6.4% | approximately 42% | 60-70% | not affected | 66% | 1/621 |  |  | 
2 | Cc1oc2c(C)c3oc(=O)cc(C)c3cc2c1COCCN [S-59] |  |  |  | 90% | 9/10 | 30% | 3/10 | significantly improved survival |  |  |  |  |  |  |  |  |  | none | 3.0 | 2.3

From patent publication US20020127208A1, “Method of transplantation using chemotherapy-treated allogeneic cells that enhance immune responses without graft versus host disease” (priority 2000, published 2002)
